Assay results reported in paper PMC10740580, “Benzothiazole-Phthalimide Hybrids as Anti-Breast Cancer and Antimicrobial Agents” (Antibiotics, 2023).

How the values were obtained:
[1] = system: MDA-MB-231 cells; assay: TUNEL assay (DNA damage); assay type: cell-based, human; conditions: 50 μM, 24 h
Experimental: To further assess the effect of 3h treatment in MDA-MB-231, the terminal deoxynucleotidyl transferase dUTP nick-end labeling (TUNEL) assay was used. Thus, 3h or Thalidomide, as reference drug, were administered to the cells, for 24 h, at 25 and 50 μM concentrations, respectively, or with only the vehicle (DMSO), as negative control and then processed as outlined in the experimental section. […] Nuclei were counterstained with blue DAPI (Figure 2, panels A), and merge channels were also shown (Figure 2, panels C), where it is evident the perfect superposition of green and blue signals. […] Images taken from bright fields were also included (Figure 2, panels D).
DNA damage and cell death were analyzed by means of the TUNEL assay as indicated by the manufacturer’s protocols (CF™488A TUNEL Assay Apoptosis Detection Kit, Biotium, Hayward, CA, USA), with few changes, as in [42]. DAPI staining (0.2 μg/mL, Sigma Aldrich, Milan, Italy) was adopted for cell nuclei. Observations were made at 20× magnification using a fluorescence microscope (Leica DM 6000, Leica Microsystem Srl, Buccinasco, Italy). LAS-X software (Version: 3.5.7.23225; Leica Microsystem Srl, Buccinasco, Italy) was employed for the acquisition and processing of the images. Images are representative of two separate experiments from which different fields were acquired.
Figure 2 TUNEL assay. […]

[2] = system: BALB/3T3 cells; assay: ROS protection assay (DCFH-DA, H2O2-induced); assay type: cell-based, mouse; conditions: 160 μM, BALB/3T3, DCFH-DA
Experimental: Cells were treated for 24 h, and N-acetylcystein (NAC), a compound well-known for its antioxidant capacity, was used as a reference molecule. […] Compound 3h was able to reduce ROS formation by 61.4 ± 2% at the maximum concentration of 160 μM in the BALB/3T3 cells, as shown by the quantification of fluorescence intensity, proving compound 3h to be a good ROS scavenger.
ROS production was detected using the oxidation-sensitive fluorescent probe 2′,7′-dichlorodihydrofluorescein diacetate (DCFH-DA, D6665; Sigma-Aldrich, St. Louis, MO, USA) by modifying the method described by Wang and James. A black 96-well cell culture plate (Costar, Sigma Aldrich, St. Louis, MO, USA) was used to seed viable cells. After 24 h, the cells were treated with different concentrations of compound 3h (0.1–160 µM) for 1 h at 37 °C in 5% CO2. At the end of the treatment, cells were incubated with 2′,7′-dichlorofluorescein diacetate (DCFH-DA) for 30′, used at a concentration of 25 µM, in 5% CO2. […] The formation of fluorescent dichlorofluorescein (DCF), due to the oxidation of DCFH in the presence of ROS, was read at 530 nm using a microplate reader, the Tecan Infinite M1000 Pro (Tecan, Cernusco S.N., Italy), and DMSO medium was used for control cells. The data were analyzed for statistical significance (p < 0.0001) using a one-way ANOVA, followed by Dunnett’s test performed by GraphPad Prism 9. […]

[3] = system: MDA-MB-231 cells; assay: Wound-healing assay (cell migration); assay type: cell-based, human; conditions: 3h at its IC50 value
Experimental: Thus, its ability to prevent the migration of MDA-MB-231 was tested by means of the wound-healing assay. Confluent monolayers of cells were cultivated and plated before being scraped to create a wound (see Experimental Section) and treated with compound 3h at concentrations corresponding to its IC50 value (Table 2) for 24 and 48 h, or DMSO (Ctrl). These distinct endpoint times were experimentally defined since MDA-MB-231 cells have a high growth rate and frequently give rise to metastases in vivo. In fact, 48 h were sufficient for the wound closure in the control cells, treated using only the vehicle.
Confluent monolayers of MDA-MB-231 cells formed after the cells were plated on twelve-well plates and grown in full media. […] A cell imager microscope (JuLi Smart fluorescence, NanoEnTek Inc., Seoul, Republic of Korea) was used to take the pictures. The percentage of wound closure used to express the cell migration toward the wounds was: wound closure%=[(At0−At∆h)÷[…]]×100% for which At0 is the area of wound measured immediately after scratching and At∆h is the area of wound measured 48 h after scratching. […] The collected images were analyzed with the JuLI^TM smart fluorescent cell viewer (NanoEnTek Inc., Seoul, Republic of Korea).
Figure 3 Wound-healing assay conducted on MDA-MB-231 cells treated with compound 3h or vehicle (Ctrl, DMSO). […] (B): quantitative analysis of wound closure. […]

O=C1c2ccccc2C(=O)N1c1nc2ccc(Oc3ccccc3)cc2s1 [3h, 2-[6-Phenoxy-1,3-benzothiazol-2-yl]-1H-isoindole-1,3(2H)-dione]
DNA damage (TUNEL, green nuclear fluorescence) [1]: promoted DNA damage
reduction of ROS formation [2]: 61.4 ± 2%
prevention of total wound closure, 24 h ([3]; 24 h): ~ 23%
prevention of total wound closure, 48 h ([3]; 48 h): ~ 26%
